In data set [1] the test system is laboratory viral strain NL4.3. The experiment in a line: Anti-viral assay in vitro (MTT assay on infected MT-4 cells). It counts as cell-based, HIV-1. Conditions: Human immunodeficiency virus 1, MT4, 144 h, infected MT-4 cells incubated six days, average of at least two determinations. From the text: (§1) Anti-viral and cytotoxicity assays in vitro
(§2) We also use some WT clinical strains.
(In general: Tetrazolium dyes change colour on reduction, which living cells bring about.)

For another data set, the system named is MT-4. The experiment in a line: Cytotoxicity assay in vitro (MTT assay, virus omitted). It counts as cell-based. As to conditions: cell culture IC50, same MTT assay with virus omitted; average of at least two determinations.
Excerpt: as §1, §2

A further data set has as its target HIV protease (Human immunodeficiency virus type 1 group M subtype B, UniProt P04585). In words: Enzymatic (fluorometric FRET) assay for determining the inhibition constant (Ki). It counts as biochemical. As to conditions: EDANS/DABCYL substrate, equation of Henderson. From the text: Enzymatic assay for determining the inhibition constant (Ki) of synthetic compounds targeting the HIV protease
This is a fluorometric assay based on the cleavage by protease of a substrate carrying a donor group (EDANS) and an acceptor group (DABCYL) on each side of the cleavage site, interacting together through fluorescence resonance energy transfer (FRET) as described by Matayoshi et al. (Science 247:[…], 1990).
After calculation of Vo and Vi, the inhibition constant (Ki) of the compound is determined using the equation of Henderson: (Vo)/(Vi) = 1 + ([I])/(Kiapp) Where Ki = (Kiapp)/((1 + [S])/(Km)) [formula] where Vo = the enzyme's initial velocity Vi = the enzyme velocity in the presence of the inhibitory compound, [I] = inhibitor concentration, [S] = substrate concentration, Km = Michaelis-Menten constant and Kiapp = apparent Ki
Graphs are traced and the Ki determined using GraphPad Prism software v. 3.0.

SMILES strings stand for the structures. pEC50, pKi: −log10 of the molar value. Read-outs that look alike come from different tables or passages of the source.

On to `Cc1ccc(S(=O)(=O)N(CC(C)C)[C@H](CO)CCCCNC(=O)N(Cc2ccccc2)Cc2ccccc2[N+](=O)[O-])cc1` [Example 59, (2S) 2-N-isobutyl-2-N-(4-methylbenzenesulfonyl)-6-N-[N'-benzyl-N'-(2-nitrobenzyl)aminocarbonyl]-2,6-diaminohexanol], for which the pEC50 in data set [1] was 6.41. The same compound displayed a CCIC50 in the data set with MT-4 of 4.6 µM.
As for `Cc1ccc(S(=O)(=O)N(CC(C)C)[C@H](CO)CCCCNC(=O)N(Cc2ccccc2)Cc2cccc([N+](=O)[O-])c2)cc1` [Example 60, (2S) 2-N-isobutyl-2-N-(4-methylbenzenesulfonyl)-6-N-[N'-benzyl-N'-(3-nitrobenzyl)aminocarbonyl]-2,6-diaminohexanol], in data set [1], the pEC50 was 5.74. The compound also had a CCIC50 with MT-4 of 4.6 µM.
Turning to `Cc1ccc(S(=O)(=O)N(CC(C)C)[C@H](CO)CCCCNC(=O)N(Cc2ccccc2)Cc2ccc([N+](=O)[O-])cc2)cc1` [Example 61, (2S) 2-N-isobutyl-2-N-(4-methylbenzenesulfonyl)-6-N-[N'-benzyl-N'-(4-nitrobenzyl)aminocarbonyl]-2,6-diaminohexanol], the negative logarithm of the EC50 (pEC50) in data set [1] is 5.42. Moreover, in the data set on MT-4, the CCIC50 turned out to be 5.1 µM.
Consider `CC(C)CN([C@H](CO)CCCCNC(=O)N(Cc1ccc(F)cc1)Cc1ccc2c(c1)OCO2)S(=O)(=O)c1ccc(N)cc1` [Example 67, (2S) 2-N-(4-aminobenzenesulfonyl)-2-N-isobutyl-6-N-[N'-(4-fluorobenzyl)-N'-piperonylaminocarbonyl]-2,6-diaminohexanol], for which the pEC50 in data set [1] is 6.31. The same compound registered a CCIC50 with MT-4 of 11 µM.
`COc1ccc(CNC(=O)NCCCC[C@@H](CO)N(CC(C)C)S(=O)(=O)c2ccc(N)cc2)c(OC)c1` [Example 79, (2S) 2-N-(4-aminobenzenesulfonyl)-2-N-isobutyl-6-N-(N'-2,4-dimethoxybenzylaminocarbonyl)-2,6-diaminohexanol]: the pKi on HIV protease (read-out: Ki) is less than 6.52.
Same read-out and setting: next, `COc1cc(CNC(=O)NCCCC[C@@H](CO)N(CC(C)C)S(=O)(=O)c2ccc(N)cc2)cc(OC)c1` [Example 80, (2S) 2-N-(4-aminobenzenesulfonyl)-2-N-isobutyl-6-N-(N'-3,5-dimethoxybenzylaminocarbonyl)-2,6-diaminohexanol]: less than 6.52.
With `CC(C)CN([C@H](CO)CCCCNC(=O)N(Cc1ccccc1)Cc1ccc2c(c1)OCO2)S(=O)(=O)c1ccc(N)cc1` [Example 82, (2S) 2-N-(4-aminobenzenesulfonyl)-2-N-isobutyl-6-N-(N'-benzyl-N'-piperonylaminocarbonyl)-2,6-diaminohexanol], the pEC50 in data set [1] is 5.85. This compound also showed a CCIC50 in the data set with MT-4 of 12.5 µM.
In the same order, the values of `CC(C)CN([C@H](CO)CCCCNC(=O)N(Cc1ccc2c(c1)OCO2)Cc1ccc2c(c1)OCO2)S(=O)(=O)c1ccc(N)cc1` [Example 85, (2S) 2-N-(4-aminobenzenesulfonyl)-2-N-isobutyl-6-N-(N',N'-dipiperonylaminocarbonyl)-2,6-diaminohexanol] are 6.89 and 13.1 µM.
`CC(C)CCN([C@H](CO)CCCCNC(=O)N(Cc1ccccc1)Cc1ccccc1)S(=O)(=O)c1ccc(N)cc1` [Example 86, (2S) 2-N-(4-aminobenzenesulfonyl)-2-N-(3-methylbutyl)-6-N-(N'-N'-dibenzylaminocarbonyl)-2,6-diaminohexanol] had a pKi at HIV protease (Ki) of 8.24.
On to `CC(C)CCN([C@H](CO)CCCCNC(=O)N(Cc1ccc2c(c1)OCO2)Cc1cccs1)S(=O)(=O)c1ccc(N)cc1` [Example 87, (2S) 2-N-(4-aminobenzenesulfonyl)-2-N-(3-methylbutyl)-6-N-[N'-(2-thiophenemethyl)-N'-piperonylaminocarbonyl]-2,6-diaminohexanol], for which the negative logarithm of the Ki (pKi) on HIV protease (Ki) was 8.85.
In the case of `COc1ccc(CN(Cc2ccc3c(c2)OCO3)C(=O)NCCCC[C@@H](CO)N(CCC(C)C)S(=O)(=O)c2ccc(N)cc2)cc1` [Example 88, (2S) 2-N-(4-aminobenzenesulfonyl)-2-N-(3-methylbutyl)-6-N-[N'-(4-methoxybenzyl)-N'-piperonylaminocarbonyl]-2,6-diaminohexanol], at HIV protease (Ki), the pKi was 8.54.
As to `CC(C)CN([C@H](CO)CCCCNC(=O)N(Cc1ccccc1)Cc1cccc2c1OCO2)S(=O)(=O)c1ccc(N)cc1` [Example 91, (2S) 2-N-(4-aminobenzenesulfonyl)-2-N-isobutyl-6-N-[N'-benzyl-N'-(2,3-methylenedioxy)benzylaminocarbonyl]-2,6-diaminohexanol], the pKi at HIV protease (Ki) is 8.27.
Consider `CC(C)CN([C@H](CO)CCCCNC(=O)N(Cc1ccccc1)Cc1ccc(F)cc1F)S(=O)(=O)c1ccc(N)cc1` [Example 93, (2S) 2-N-(4-aminobenzenesulfonyl)-2-N-isobutyl-6-N-[N'-benzyl-N'-(2,4-difluorobenzyl)aminocarbonyl]-2,6-diaminohexanol], for which the pKi on HIV protease (Ki) was 7.92.
`CC(C)CCN([C@H](CO)CCCCNC(=O)N(Cc1ccccc1)Cc1cccc2c1OCO2)S(=O)(=O)c1ccc(N)cc1` [Example 96, (2S) 2-N-(4-aminobenzenesulfonyl)-2-N-(3-methylbutyl)-6-N-[N'-benzyl-N'-(2,3-methylenedioxy)benzylaminocarbonyl]-2,6-diaminohexanol] had a pKi at HIV protease (Ki) of 8.40.
In the case of `CCC(C)CN([C@H](CO)CCCCNC(=O)N(Cc1ccccc1)Cc1ccc2c(c1)OCO2)S(=O)(=O)c1ccc(N)cc1` (stereo partly drawn) [Example 98, (2S) 2-N-(4-aminobenzenesulfonyl)-2-N-(2-methylbutyl)-6-N-[N'-benzyl-N'-piperonylaminocarbonyl]-2,6-diaminohexanol], the negative-log Ki (pKi) on HIV protease was 7.89.
In the case of `CCC(C)CN(C(CO)CCCCNC(=O)N(Cc1ccc(OC)cc1)Cc1ccc2c(c1)OCO2)S(=O)(=O)c1ccc(N)cc1` [Example 100, (2S) 2-N-(4-aminobenzenesulfonyl)-2-N-(2-methylbutyl)-6-N-[N'-(4-methoxybenzyl)-N'-piperonylaminocarbonyl]-2,6-diaminohexanol], the pKi on HIV protease (read-out: Ki) is less than 6.52.
On to `CC(C)CCN([C@H](CO)CCCCNC(=O)N(Cc1ccccc1)Cc1ccc2c(c1)OCO2)S(=O)(=O)c1ccc(N)cc1` [Example 101, (2S) 2-N-(4-aminobenzenesulfonyl)-2-N-(3-methylbutyl)-6-N-[N'-benzyl-N'-piperonylaminocarbonyl]-2,6-diaminohexanol], for which the pKi at HIV protease (Ki) is 8.39.
`CC(C)CCN([C@H](CO)CCCCNC(=O)N(Cc1ccc(F)cc1)Cc1ccc2c(c1)OCCO2)S(=O)(=O)c1ccc(N)cc1` [Example 103, (2S) 2-N-(4-aminobenzenesulfonyl)-2-N-(3-methylbutyl)-6-N-[N'-(4-fluorobenzyl)-N'-(3,4-ethylenedioxy)benzylaminocarbonyl]-2,6-diaminohexanol]: at HIV protease (Ki), the pKi is 8.27.
Consider `CC(C)CCN([C@H](CO)CCCCNC(=O)N(Cc1ccc2c(c1)OCO2)CC(C)C)S(=O)(=O)c1ccc(N)cc1` [Example 104, (2S) 2-N-(4-aminobenzenesulfonyl)-2-N-(3-methylbutyl)-6-N-(N'-isobutyl-N'-piperonylaminocarbonyl)-2,6-diaminohexanol], for which the pKi on HIV protease (Ki) was 7.11.
`COc1cccc(CN(Cc2ccc3c(c2)OCO3)C(=S)NCCCC[C@@H](CO)N(CCC(C)C)S(=O)(=O)c2ccc(N)cc2)c1` [Example 105, (2S) 2-N-(4-aminobenzenesulfonyl)-2-N-(3-methylbutyl)-6-N-[N'-(3-methoxybenzyl)-N'-piperonylaminothiocarbonyl]-2,6-diaminohexanol] had a pKi on HIV protease (Ki) of 8.59.
`COc1ccc(CN(Cc2ccc3c(c2)OCO3)C(=S)NCCCC[C@@H](CO)N(CCC(C)C)S(=O)(=O)c2ccc(N)cc2)cc1OC` [Example 106, (2S) 2-N-(4-aminobenzenesulfonyl)-2-N-(3-methylbutyl)-6-N-[N'-(3,4-dimethoxybenzyl)-N'-piperonylaminothiocarbonyl]-2,6-diaminohexanol] showed a pKi on HIV protease (Ki) of 8.54.
As for `CC(C)CCN([C@H](CO)CCCCNC(=S)N(Cc1ccc(F)cc1)Cc1ccc2c(c1)OCCO2)S(=O)(=O)c1ccc(N)cc1` [Example 108, (2S) 2-N-(4-aminobenzenesulfonyl)-2-N-(3-methylbutyl)-6-N-[N"(4-fluorobenzyl)-N'-(3,4-ethylenedioxy)benzylaminothiocarbonyl]-2,6-diaminohexanol], the pKi on HIV protease (Ki) was 8.00.
Still for that read-out and setting: under `COc1ccc(CN(Cc2ccc3c(c2)OCO3)C(=S)NCCCC[C@@H](CO)N(CCC(C)C)S(=O)(=O)c2ccc(N)cc2)cc1` [Example 109, (2S) 2-N-(4-aminobenzenesulfonyl)-2-N-(3-methylbutyl)-6-N-[N'-(4-methoxybenzyl)-N'-piperonylaminothiocarbonyl]-2,6-diaminohexanol] stands 8.44.
Turning to `COc1cccc(CN(Cc2ccc3c(c2)OCO3)C(=O)NCCCC[C@@H](CO)N(CCC(C)C)S(=O)(=O)c2ccc(N)cc2)c1` [Example 110, (2S) 2-N-(4-aminobenzenesulfonyl)-2-N-(3-methylbutyl)-6-N-[N'-(3-methoxybenzyl)-N'-piperonylaminocarbonyl]-2,6-diaminohexanol], the pKi on HIV protease (Ki) is 8.66. This compound gave a pEC50 in data set [1] of 6.46.

By pEC50 is commonly meant the EC50 on a negative log10 scale, so that one unit is a factor of ten. Higher therefore signals a low EC50. The term pKi denotes the negative decadic logarithm of the Ki, by convention in mol/L.

These data come from patent EP1480941B1, “UREA DERIVATIVES AS HIV ASPARTYL PROTEASE INHIBITORS” (priority 2002, dated 2003).
